In the test the test system is HepG2, simvastatin, LDLR mRNA qPCR, 6 h. Put plainly: statin-induced LDLR expression modulation – cell-based, HepG2, RT-PCR, simvastatin, cherry-pick, mechanism study for Trib1 inducer project, late-stage follow-up (AID 1053154). The settings on record: stronger effect = higher value.

This note sets out measurements from PubChem BioAssay AID1053154 (Broad Institute, 2014).

Structures are written as SMILES.

For the compound `CN1C(=O)c2cc(NC(=O)c3ccc(C(F)(F)F)cc3)ccc2OC[C@@H]2O[C@@H](CC(=O)NC3Cc4ccccc4C3)CC[C@@H]21`, the fold change was 10.
On to `CN1C(=O)c2cc(NC(=O)c3ccc(C(F)(F)F)cc3)ccc2OC[C@@H]2O[C@H](CC(=O)NC3Cc4ccccc4C3)CC[C@@H]21`, for which the fold change is 2.
